Results as given in PMC11091117, “A fluorescently-tagged tick kinin neuropeptide triggers peristalsis and labels tick midgut muscles” (Scientific Reports, 2024).
“Also recorded” adds a separate entry of the source.

Experiments:
tick midgut = experiment: Tick midgut contraction assay with EthoVision video analysis; design: species or system Rhipicephalus sanguineus
Source text: (§1) Individual female ticks were immobilized on a Petri dish filled with wax by submerging their legs in melted wax heated with a soldering pencil (Electronic Control Soldering Station EC 1000, Weller, Apex, North Carolina, USA). Females were dissected under physiological saline following the protocol described by Tidwell et al.[51]. The tick was cut along the edge of the scutum/alloscutum using a stainless steel #12 scalpel blade (Integra Miltex, York, PA, USA), after which the scutum was removed with a pair of fine forceps. To expose the midgut for removal, the tracheae, Malpighian tubules, ovaries, rectal sac, and synganglion were removed with fine forceps in that order. The midgut was then carefully removed and placed into 200 µL of fresh tick saline (See Reagents and Peptides) on a single gasketed incubation chamber (500 µL, Size 22 × 40 mm, Electron Microscopy Sciences, Hatfield, PA). The midguts were then rinsed three times with the physiological tick saline for subsequent fluorescent labeling or activity experiments.
Midguts were dissected from immobilized female ticks under tick saline, as described under the Midgut Dissection. Ten different midguts were used for each of the two treatments, and ticks were of the same age and batch and had been maintained under the same conditions. Dissected midguts were placed individually into 200 µL of tick saline for 10 min at 28 °C on a gasketed glass coverslip (500 µL, Size 22 × 40 mm) serving as incubation chamber. […] After the final wash and removal of saline, 200 µL of saline were added, and a microscopy coverslip (24 × 60 mm, VWR, Radnor, PA) was placed over the gasketed portion of the incubation chamber, which height (0.5 mm) fits to prevent the midgut from floating, but still allows midgut peristalsis. The midguts were observed and filmed under a dissecting microscope (Olympus SZ61, Japan) equipped with an Infinity 5 camera (Teledyne Lumenera, Ottawa, ON, Canada). All videos were recorded for 1 min with the INFINITY ANALYZE 7 software (Teledyne Lumenera) at 30 frames/second with a 2464 × 2056 resolution. The field of view in all videos recorded represents 4 × 3.5 mm to capture the entire tick midguts under saline. All video files in Windows Media Video (.wmv) format obtained from the Infinity Analyze 7 software were converted to the MP4 format using CloudConvert (cloudconvert.com, Lunaweb, Munich, Germany) for analyses with the EthoVision XT 17 software (Noldus Information Technology, Wageningen, The Netherlands).
We used the EthoVision 17 XT software to quantify the “activity” (pixel change) of the midguts from the videos recorded. This software defines activity as the percentage of pixels that have changed in the entire defined arena between the current image and previous image. The videos are recorded in 2464 × 2056 resolution and the arena is set to be the entire video screen. Video files were uploaded into the program and analyzed starting from time zero to the end of the 60 s video. Detection settings for activity included the activity threshold which was set to 5 to achieve zero detection when the midgut was immobile. Although the video captured 30 frames (images) per s, for the video analysis we chose a “sample rate” of 7 samples /s, with sample rate being the number of images from the video the EthoVision program analyzes per second. To calculate activity, each pixel of the video image was compared from one image to the next, and the proportion of pixel changes was calculated by dividing the number of pixels changed from one image to the next by the total number of pixels in the image. Care was given for the midgut to occupy most of the arena, as the activity analyses will reflect the midgut movement as a proportion of the total arena. Midgut activity is observed as pixel changes, which are represented by the red-colored pixels in the S4 video. The mean pixel change per midgut was then determined by averaging the pixel changes from all samples within the recording period. […]

[1] = tested on: vector-only (V/O) CHO-K1 cells; experiment: Confocal visualization on live vector-only cells with fluorescently labeled kinin peptide; format: binding; details: 10 µM labeled peptide, 1 min, HBSS, confocal Leica SP8
Source text: Three peptides were used in this study. These included: 1) the ligand for the endogenous tick kinin receptor from Rhipicephalus sanguineus, Rhisa-kinin 8 peptide of sequence GTGEDQAFSPWGamide (Rhisa-K-8; RK8; of identical sequence to Rhimi-K-8 in Rhipicephalus microplus)[48], 2) the same peptide but fluorescently labeled at the N-terminus with tetramethylrhodamine (TMR) a red fluorescent dye, designated TMR-Rhisa-K-8 (TMR-RK8), and 3) a labeled peptide synthesized with the scrambled sequence of the kinin ligand, designated TMR-Scrambled. The sequence of TMR-RK8 was TMR-C-GTGEDQAFSPWGamide). The TMR-Scrambled kinin (TMR-C-GTQWGPGFEADSamide) served as a negative control for tissue labeling. […]
The BMLK3 and V/O cells (5000–10,000 cells) were seeded separately in 200 µL selective media onto the two chambers of the cover glass (Lab-Tek Chambered Coverglass, 4.2 cm^2 area, #1.0 German borosilicate glass, sterile, Cat # 155,380, Thermo Fisher Scientific Inc., Walthams, MA) and grown in the incubator overnight at 37 °C and 5% CO2. The next day, cells would be ready for fluorescent labeling: the selective media was replaced with 200 µL HBSS to rinse the cells. […] Images were analyzed and computer-colored using Fiji/ImageJ (National Institutes of Health, Bethesda, MD). […]

[2] = tested on: tick kinin receptor in midgut muscles; experiment: Fluorescent labeling of live midgut ex vivo, confocal microscopy; format: binding, Rhipicephalus sanguineus; details: 10 µM labeled peptide, 1 min
Source text: Three peptides were used in this study. These included: 1) the ligand for the endogenous tick kinin receptor from Rhipicephalus sanguineus, Rhisa-kinin 8 peptide of sequence GTGEDQAFSPWGamide (Rhisa-K-8; RK8; of identical sequence to Rhimi-K-8 in Rhipicephalus microplus)[48], 2) the same peptide but fluorescently labeled at the N-terminus with tetramethylrhodamine (TMR) a red fluorescent dye, designated TMR-Rhisa-K-8 (TMR-RK8), and 3) a labeled peptide synthesized with the scrambled sequence of the kinin ligand, designated TMR-Scrambled. The sequence of TMR-RK8 was TMR-C-GTGEDQAFSPWGamide). The TMR-Scrambled kinin (TMR-C-GTQWGPGFEADSamide) served as a negative control for tissue labeling. All peptides were custom-synthesized and purchased from GenScript (Piscataway, NJ, USA) with a purity of ≥ 95% and the cysteine in bold in both sequences was added to attach the label. Experiments were replicated with independently synthesized batches (4 mg each) of labeled and unlabeled peptides, for reproducibility. Unlabeled RK8 was used as a competitive ligand to verify target-specific binding of the labeled TMR-RK8 (see Ligand Competition Assay). For cell assays, the peptide stock solutions (100 µM) were made in 1% dimethyl sulfoxide (DMSO) in Hank’s balanced salt solution (HBSS, Thermo Fisher, Waltham, USA). For fluorescent cell labeling, peptide working solutions (10 µM) were prepared in HBSS from stock solutions. For assays on the midgut, peptides were solubilized and diluted in a tick physiological saline consisting of 140 mM NaCl, 5 mM KCl, 1 mM MgCl2, 5 mM CaCl2, 4 mM NaHCO3, and 5 mM HEPES, pH 7.2[49].
as §1
To determine the location of the tick kinin receptor in the midgut of ticks, a commercially synthesized Rhisa-kinin peptide 8[52] conjugated with a stable, red fluorophore (TMR-RK8) or a similarly labeled peptide of scrambled sequence (TMR-Scrambled) were applied to freshly dissected midguts ex vivo. For this, midguts of unfed adult females were incubated in ice-cold saline for 10 min. The saline was removed before incubation in 200 µL of 4’,6-diamidino-2-phenylindole dihydrochloride (DAPI, Sigma, 1 µg/mL in saline) for 1 min and rinsed with saline (200 µL) once. After saline removal, the midgut was incubated for 1 min with 200 µL of 10 µM of either TMR-Scrambled kinin or TMR-RK8, then the labeled peptide solution was removed by pipette and the midgut was rinsed twice with 200 µL saline. […]

## TMR-C-GTQWGPGFEADSamide [TMR-Scrambled]
Tick midgut; 1 µM TMR-Scrambled, after 10 min of exposure, 4X speed
  midgut contractions, S5 Video (in words): did not induce contractions
Tick midgut; 10 µM, 1 min, 28 °C, midguts of unfed females ex vivo, video recorded 1 min
  midgut peristalsis/contractions (in words): did not elicit peristalsis; also recorded: low to imperceptible activity; also recorded: did not display significant activity
Tick midgut; 10 µM, 1 min, rinsed twice, 28 °C, tick saline, 60 s video, 7 samples/s, EthoVision XT 17, activity threshold 5, N = 10 midguts
  mean activity (mean pixel change, percentage of pixels changed in arena): less than 0.1%
[1]
  labeling of vector-only cells (in words): not labeled by either peptide
[2]; midguts ex vivo, Z-slices under the surface
  non-specific labeling below midgut surface (in words): non-specific aggregation in lipid vesicles beneath the midgut surface; also recorded: non-specific labeling observed in lipid vesicles inside the midgut
[2]; tick saline pH 7.2, midguts of unfed females ex vivo, DAPI and Alexa 488-phalloidin, confocal 20X/40X
  labeling of midgut surface muscles (in words): did not significantly bind to the surface of the tick midgut; also recorded: did not show specific binding to the midgut of ticks; also recorded: specific muscle surface staining was not observed; also recorded: No signal; also recorded: grid-like fluorescent pattern was not observed
